# Source: patent US20210230170A1, “KRAS G12C INHIBITORS” (Mirati Therapeutics, Inc., priority 2018, published 2021)
# Target: T1, KRas G12C (Homo sapiens, UniProt P01116, G12C)
# T1 construct: NCI-H358 cells (ATCC CRL-5807) express KRas G12C; host or cells: NCI-H358
# Assay: Inhibition of KRas G12C in NCI-H358 cells measured by phosphorylated ERK (Phospho-ERK)
# Format: cell-based
# Details: pERK(Thr202/Tyr204) signal normalized with GAPDH, percent of DMSO control, 3 hours compound treatment
# Experimental: The cellular inhibition of KRAs G12C by exemplary compounds of the present invention was determined by measuring the amount of a downstream marker of KRas activity, phosphorylated ERK (“Phospho-ERK”).
# NCI-H358 cells (ATCC CRL-5807) express KRas G12C and were grown in RPMI medium supplemented with 10% fetal bovine serum, penicillin/streptomycin and 10 mM HEPES. Cells were plated in poly-D-Lysine coated 96-well plates at a concentration of 50,000 cells/well and allowed to attach for 8-12 hours. Diluted compounds were then added at a final concentration of 0.5% DMSO. After 3 hours, the medium was removed, 150 μL of 4% formaldehyde was added and the plates were incubated for 20 minutes. The plates were washed with PBS, and permeabilized using 150 μL of ice cold 100% methanol for 10 minutes. Non-specific antibody binding to the plates was blocked using 100 μL Licor Blocking Buffer (Li-Cor Biotechnology, Lincoln Nebr.) for 1 hour at room temperature. Positive control samples and samples lacking cells were parallel processed with test samples as standards.
# The amount Phospho-ERK was determined using an antibody specific for the phosphorylated form of ERK and compared to the amount of GAPDH. Primary antibodies used for detection were added as follows: Phospho-ERK (Cell Signaling cs9101) diluted 1:500 and GAPDH (Millipore MAB374) diluted 1:5000 in Licor block+0.05% Tween 20. The plates were incubated for 2 hours at room temperature. The plates were washed with PBS+0.05% Tween 20.
# Secondary antibodies used to visualize primary antibodies were added as follows: Anti-rabbit-680 diluted 1:1000 and Anti-mouse-800 diluted 1:1000 in Licor Block+0.05% Tween 20 and incubated for 1 hour at room temperature. The plates were washed with PBS+0.05% Tween 20. A 100 μL aliquot of PBS was added to each well and the plates were read on a LICOR AERIUS plate reader.
# The pERK(Thr202/Tyr204) signal was normalized with the GAPDH signal and percent of DMSO control values were calculated. IC50 values were generated using a 4 parameter fit of the dose response curve. Key: “A”≤500 nM; “B”>500 nM and ND=not determined.
# T1 sequence (P01116 1-188 isoform P01116-2 G12C): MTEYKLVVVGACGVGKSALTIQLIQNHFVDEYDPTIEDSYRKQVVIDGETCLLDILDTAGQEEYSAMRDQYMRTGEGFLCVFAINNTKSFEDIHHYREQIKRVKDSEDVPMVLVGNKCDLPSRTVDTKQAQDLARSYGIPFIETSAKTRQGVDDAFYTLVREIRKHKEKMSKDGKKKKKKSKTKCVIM
row,IC50,SMILES
1,≤ 500 nM,"C=CC(=O)N1CCN(c2nc(OC[C@@H]3CCCN3C)nc3c2CCCN(c2cccc(F)c2C)C3)C[C@@H]1CC#N [Example 9, 2-((S)-1-acryloyl-4-(8-(3-fluoro-2-methylphenyl)-2-(((S)-1-methylpyrrolidin-2-yl)methoxy)-6,7,8,9-tetrahydro-5H-pyrimido[4,5-c]azepin-4-yl)piperazin-2-yl)acetonitrile]"
2,> 500 nM,"C=CC(=O)N1CCN(c2nc(OC[C@@H]3CCCN3C)nc3c2CCCN(c2c(C)ccc4[nH]ncc24)C3)C[C@@H]1CC#N [Example 19, 2-[(2S)-4-[8-(5-methyl-1H-indazol-4-yl)-2-[[(2S)-1-methylpyrrolidin-2-yl]methoxy]-5,6,7,9-tetrahydropyrimido[4,5-c]azepin-4-yl]-1-prop-2-enoyl-piperazin-2-yl]acetonitrile]"
3,> 500 nM,"C=CC(=O)N1CCN(c2ncnc3c2CCCN(c2cccc4cccc(C)c24)C3)C[C@@H]1CC#N [Example 25, 2-[(2S)-4-[8-(8-methyl-1-naphthyl)-5,6,7,9-tetrahydropyrimido[4,5-c]azepin-4-yl]-1-prop-2-enoyl-piperazin-2-yl]acetonitrile]"
4,> 500 nM,"C=CC(=O)N1CCN(c2nc(OC[C@@H]3CCCN3C)nc3c2CCCN(c2cccc4cccc(Cl)c24)C3)C[C@@H]1CC#N [Example 7, 2-((S)-1-acryloyl-4-(8-(8-chloronaphthalen-1-yl)-2-(((S)-1-methylpyrrolidin-2-yl)methoxy)-6,7,8,9-tetrahydro-5H-pyrimido[4,5-c]azepin-4-yl)piperazin-2-yl)acetonitrile]"
5,≤ 500 nM,"C=CC(=O)N1CCN(c2nc(OC[C@@H]3CCCN3C)nc3c2CCCN(c2c(C)cccc2F)C3)C[C@@H]1CC#N [Example 18, 2-[(2S)-4-[8-(2-fluoro-6-methyl-phenyl)-2-[[(2S)-1-methylpyrrolidin-2-yl]methoxy]-5,6,7,9-tetrahydropyrimido[4,5-c]azepin-4-yl]-1-prop-2-enoyl-piperazin-2-yl]acetonitrile]"
6,> 500 nM,"C=CC(=O)N1CCN(c2nc(OC[C@@H]3CCCN3C)nc3c2CCCN(c2cccc4cccc(C(F)(F)F)c24)C3)C[C@@H]1CC#N [Example 21, 2-((S)-1-acryloyl-4-(2-(((S)-1-methylpyrrolidin-2-yl)methoxy)-8-(8-(trifluoromethyl)naphthalen-1-yl)-6,7,8,9-tetrahydro-5H-pyrimido[4,5-c]azepin-4-yl)piperazin-2-yl)acetonitrile]"
7,> 500 nM,"C=CC(=O)N1CCN(c2nc(OC[C@@H]3CCCN3C)nc3c2CCCN(c2ccccc2CO)C3)C[C@@H]1CC#N [Example 16, 2-[(2S)-4-[8-[2-(hydroxymethyl)phenyl]-2-[[(2S)-1-methylpyrrolidin-2-yl]methoxy]-5,6,7,9-tetrahydropyrimido[4,5-c]azepin-4-yl]-1-prop-2-enoyl-piperazin-2-yl]acetonitrile]"
8,> 500 nM,"C=C(F)C(=O)N1CCN(c2ncnc3c2CCCN(c2cccc4cccc(C)c24)C3)C[C@@H]1CC#N [Example 23, 2-[(2S)-1-(2-fluoroprop-2-enoyl)-4-[8-(8-methyl-1-naphthyl)-5,6,7,9-tetrahydropyrimido[4,5-c]azepin-4-yl]piperazin-2-yl]acetonitrile]"
9,> 500 nM,"C=CC(=O)N1CCN(c2nc(OC[C@@H]3CCCN3C)nc3c2CCCN(c2ccccc2)C3)C[C@@H]1CC#N [Example 5, 2-[(2S)-4[2-[[(2S)-1-methylpyrrolidin-2-yl]methoxy]-8-phenyl-5,6,7,9-tetrahydropyrimido[4,5-c]azepin-4-yl]-1-prop-2-enoyl-piperazin-2-yl]acetonitrile]"
10,> 500 nM,"C=CC(=O)N1CCN(c2nc(OC[C@@H]3CCCN3C)nc3c2CCCN(c2ccccc2C)C3)C[C@@H]1CC#N [Example 4, 2-[(2S)-4-[2-[[(2S)-1-methylpyrrolidin-2-yl]methoxy]-8-(o-tolyl)-5,6,7,9-tetrahydropyrimido[4,5-c]azepin-4-yl]-1-prop-2-enoyl-piperazin-2-yl]acetonitrile]"
11,≤ 500 nM,"C=CC(=O)N1CCN(c2nc(OC[C@@H]3CCCN3C)nc3c2CCCN(c2c(C)ccc4ccccc24)C3)C[C@@H]1CC#N [Example 3, 2-[(2S)-4-[8-(2-methyl-1-naphthyl)-2-[[(2S)-1-methylpyrrolidin-2-yl]methoxy]-5,6,7,9-tetrahydropyrimido[4,5-c]azepin-4-yl]-1-prop-2-enoyl-piperazin-2-yl]acetonitrile]"
12,≤ 500 nM,"C=CC(=O)N1CCN(c2nc(OC[C@@H]3CCCN3C)nc3c2CCCN(c2cccc4cccc(C)c24)C3)C[C@@H]1CC#N [Example 1, 2-[(2S)-4-[8-(8-methyl-1-naphthyl)-2-[[(2S)-1-Methylpyrrolidin-2-yl]methoxy]-5,6,7,9-tetrahydropyrimido[4,5-c]azepin-4-yl]-1-prop-2-enoyl-piperazin-2-yl]acetonitrile]"
13,> 500 nM,"C=CC(=O)N1CCN(c2nc(OC[C@@H]3CCCN3C)nc3c2CCCN(c2ncccc2C(F)(F)F)C3)C[C@@H]1CC#N [Example 15, 2-[(2S)-4-[2-[[(2S)-1-methylpyrrolidin-2-yl]methoxy]-8-[3-(trifluoromethyl)-2-pyridyl]-5,6,7,9-tetrahydropyrimido[4,5-c]azepin-4-yl]-1-prop-2-enoyl-piperazin-2-yl]acetonitrile]"
14,> 500 nM,"C=CC(=O)N1CCN(c2nc(OC[C@@H]3CCCN3C)nc3c2CCCN(c2cccc4c(C)cccc24)C3)C[C@@H]1CC#N [Example 11, 2-((S)-1-acryloyl-4-(8-(5-methylnaphthalen-1-yl)-2-(((S)-1-methylpyrrolidin-2-yl)methoxy)-6,7,8,9-tetrahydro-5H-pyrimido[4,5-c]azepin-4-yl)piperazin-2-yl)acetonitrile]"
15,> 500 nM,"C=C(F)C(=O)N1CCN(c2nc(OC[C@@H]3CCCN3C)nc3c2CCCN(c2cccc4[nH]ncc24)C3)C[C@@H]1CC#N [Example 26, 2-((S)-4-(8-(1H-indazol-4-yl)-2-(((S)-1-methylpyrrolidin-2-yl)methoxy)-6,7,8,9-tetrahydro-5H-pyrimido[4,5-c]azepin-4-yl)-1-(2-fluoroacryloyl)piperazin-2-yl)acetonitrile]"
16,≤ 500 nM,"C=CC(=O)N1CCN(c2nc(OC[C@@H]3CCCN3C)nc3c2CCCN(c2cccc4c(F)cccc24)C3)C[C@@H]1CC#N [Example 12, 2-((S)-1-acryloyl-4-(8-(5-fluoronaphthalen-1-yl)-2-(((S)-1-methylpyrrolidin-2-yl)methoxy)-6,7,8,9-tetrahydro-5H-pyrimido[4,5-c]azepin-4-yl)piperazin-2-yl)acetonitrile]"
17,> 500 nM,"C=CC(=O)N1CCN(c2nc(OC[C@@H]3CCCN3C)nc3c2CCCN(c2cccc(C(C)C)c2)C3)C[C@@H]1CC#N [Example 8, 2-[(2S)-4-[8-(3-isopropylphenyl)-2-[[(2S)-1-methylpyrrolidin-2-yl]methoxy]-5,6,7,9-tetrahydropyrimido[4,5-c]azepin-4-yl]-1-prop-2-enoyl-piperazin-2-yl]acetonitrile]"
18,> 500 nM,"C=C(F)C(=O)N1CCN(c2nc(OC[C@@H]3CCCN3C)nc3c2CCCN(c2cccc4cccc(C)c24)C3)C[C@@H]1CC#N [Example 2, 2-[(2S)-1-(2-fluoroprop-2-enoyl)-4-[8-(8-methyl-1-naphthyl)-2-[[(2S)-1-methylpyrrolidin-2-yl]methoxy]-5,6,7,9-tetrahydropyrimido[4,5-c]azepin-4-yl]piperazin-2-yl]acetonitrile]"
19,≤ 500 nM,"C=CC(=O)N1CCN(c2nc(OC[C@@H]3CCCN3C)nc3c2CCCN(c2nccc4cccc(C)c24)C3)C[C@@H]1CC#N [Example 17, 2-[(2S)-4-[8-(8-methyl-1-isoquinolyl)-2-[[(2S)-1-methylpyrrolidin-2-yl]methoxy]-5,6,7,9-tetrahydropyrimido[4,5-c]azepin-4-yl]-1-prop-2-enoyl-piperazin-2-yl]acetonitrile]"
20,> 500 nM,"C=C(F)C(=O)N1CCN(c2nc(OC[C@@H]3CCCN3C)nc3c2CCCN(c2cccc4ccccc24)C3)C[C@@H]1CC#N [Example 22, 2-((S)-1-(2-fluoroacryloyl)-4-(2-(((S)-1-methylpyrrolidin-2-yl)methoxy)-8-(naphthalen-1-yl)-6,7,8,9-tetrahydro-5H-pyrimido[4,5-c]azepin-4-yl)piperazin-2-yl)acetonitrile]"
21,≤ 500 nM,"C=CC(=O)N1CCN(c2nc(OC[C@@H]3CCCN3C)nc3c2CCCN(c2c(F)ccc4ccccc24)C3)C[C@@H]1CC#N [Example 10, 2-((S)-1-acryloyl-4-(8-(2-fluoronaphthalen-1-yl)-2-(((S)-1-methylpyrrolidin-2-yl)methoxy)-6,7,8,9-tetrahydro-5H-pyrimido[4,5-c]azepin-4-yl)piperazin-2-yl)acetonitrile]"
